These results are taken from patent US10308659B2, “Pyridine derivatives” (Hoffmann-La Roche Inc., priority 2013, dated 2019).

Read-outs that look alike come from different tables or passages of the source. Bounds are passed on as bounds.

One test has as its target human CB2 receptors (Homo sapiens (Human), UniProt P34972). In words: cAMP assay, CHO cells expressing human CB2 receptors. The class given is cell-based. The method, then:
(§1) CHO cells expressing human CB1 or CB2 receptors are seeded 17-24 hours prior to the experiment 50.000 cells per well in a black 96 well plate with flat clear bottom (Corning Costar #3904) in DMEM (Invitrogen No. 31331), 1×HT supplement, with 10% fetal calf serum and incubated at 5% CO2 and 37° C. in a humidified incubator. The growth medium was exchanged with Krebs Ringer Bicarbonate buffer with 1 mM IBMX and incubated at 30° C. for 30 min. Compounds were added to a final assay volume of 100 μl and incubated for 30 min at 30° C. […] The time-resolved energy transfer is measured by a TRF reader (Evotec Technologies GmbH), equipped with a ND:YAG laser as excitation source. The plate is measured twice with the excitation at 355 nm and at the emission with a delay of 100 ns and a gate of 100 ns, total exposure time 10 s at 730 (bandwidth30 nm) or 645 nm (bandwidth 75 nm), respectively. The FRET signal is calculated as follows: FRET=T730-Alexa730-P(T645-B645) with P=Ru730-B730/Ru645-B645, where T730 is the test well measured at 730 nM, T645 is the test well measured at 645 nm, B730 and B645 are the buffer controls at 730 nm and 645 nm, respectively. cAMP content is determined from the function of a standard curve spanning from 10 μM to 0.13 nM cAMP.
(§2) EC50 values were determined using Activity Base analysis (ID Business Solution, Limited).

Another test deals with human CB1 receptors (Homo sapiens (Human), UniProt P21554). In words: cAMP assay, CHO cells expressing human CB1 receptors. The class given is cell-based. As to the method:
as §1, §2

Where [1] appears, read: functional cAMP assay, CHO cells expressing human CB2, read-out: EC50 CB2 human.
[2] abbreviates: functional cAMP assay, CHO cells expressing human CB1, read-out: EC50 CB1 human.

human CB2 receptors, sequence (P34972 whole entry): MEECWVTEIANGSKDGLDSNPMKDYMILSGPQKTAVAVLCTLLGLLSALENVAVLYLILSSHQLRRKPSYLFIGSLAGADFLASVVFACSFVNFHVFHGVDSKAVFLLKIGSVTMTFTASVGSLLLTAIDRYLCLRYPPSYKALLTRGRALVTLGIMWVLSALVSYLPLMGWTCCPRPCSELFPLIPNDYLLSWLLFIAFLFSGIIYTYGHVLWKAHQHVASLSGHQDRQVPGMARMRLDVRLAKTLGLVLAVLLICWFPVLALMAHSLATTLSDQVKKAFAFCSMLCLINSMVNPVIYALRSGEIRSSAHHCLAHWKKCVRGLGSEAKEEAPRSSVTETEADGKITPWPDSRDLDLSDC
human CB1 receptors, sequence (P21554 whole entry): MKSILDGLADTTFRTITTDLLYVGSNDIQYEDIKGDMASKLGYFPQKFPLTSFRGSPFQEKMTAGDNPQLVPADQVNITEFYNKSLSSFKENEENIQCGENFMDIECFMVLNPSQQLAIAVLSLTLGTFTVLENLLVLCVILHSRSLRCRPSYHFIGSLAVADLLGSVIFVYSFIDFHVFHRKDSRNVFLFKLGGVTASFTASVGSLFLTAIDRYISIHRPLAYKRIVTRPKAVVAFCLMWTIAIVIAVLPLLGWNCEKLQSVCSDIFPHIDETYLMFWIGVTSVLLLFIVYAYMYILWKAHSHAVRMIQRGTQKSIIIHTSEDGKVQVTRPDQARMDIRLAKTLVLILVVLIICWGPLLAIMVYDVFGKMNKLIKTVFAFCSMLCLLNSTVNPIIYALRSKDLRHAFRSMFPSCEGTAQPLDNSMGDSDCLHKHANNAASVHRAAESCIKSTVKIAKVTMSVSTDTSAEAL

As to `Cc1noc(-c2cc(OCC3CC3)c(C3CC3)cn2)n1` [Example 1, 5-[5-cyclopropyl-4-(cyclopropylmethoxy)pyridin-2-yl]-3-methyl-1,2,4-oxadiazole], the results for the 50% effective concentration (EC50) at human CB2 receptors (setting [1]) and at human CB1 receptors (setting [2]) were 25.7 nM and more than 10 µM, respectively.
As to `c1ccc(-c2noc(-c3cc(OCC4CC4)c(C4CC4)cn3)n2)cc1` [Example 2, 5-[5-cyclopropyl-4-(cyclopropylmethoxy)pyridin-2-yl]-3-phenyl-1,2,4-oxadiazole], the EC50 on human CB2 receptors (setting [1]) was 23.1 nM; on human CB1 receptors (setting [2]), more than 10 µM.
Consider `c1c(-c2nc(C3CC3)no2)ncc(C2CC2)c1OCC1CC1` [Example 3, 3-cyclopropyl-5-[5-cyclopropyl-4-(cyclopropylmethoxy)pyridin-2-yl]-1,2,4-oxadiazole], for which the EC50 on human CB2 receptors (setting [1]) was 1.2 nM; at human CB1 receptors (setting [2]), more than 10 µM.
With `c1c(-c2nc(C3CCCC3)no2)ncc(C2CC2)c1OCC1CC1` [Example 4, 3-cyclopentyl-5-[5-cyclopropyl-4-(cyclopropylmethoxy)pyridin-2-yl]-1,2,4-oxadiazole], the EC50 at human CB2 receptors (setting [1]) is 2.1 nM; on human CB1 receptors (setting [2]) it was more than 10 µM.
For `c1ccc(Cc2noc(-c3cc(OCC4CC4)c(C4CC4)cn3)n2)cc1` [Example 5, 3-benzyl-5-[5-cyclopropyl-4-(cyclopropylmethoxy)pyridin-2-yl]-1,2,4-oxadiazole], the 50% effective concentration (EC50) was 69.1 nM on human CB2 receptors (setting [1]) and more than 10 µM at human CB1 receptors (setting [2]).
Turning to `CC(C)(C)c1noc(-c2cc(OCC3CC3)c(C3CC3)cn2)n1` [Example 6, 3-tert-butyl-5-[5-cyclopropyl-4-(cyclopropylmethoxy)pyridin-2-yl]-1,2,4-oxadiazole], the results for the EC50 at human CB2 receptors (setting [1]) and on human CB1 receptors (setting [2]) were 1 nM and 0.0092 µM, respectively.
Take `FC(F)(F)COc1cc(-c2nc(C3CC3)no2)ncc1C1CC1` [Example 7, 3-cyclopropyl-5-[5-cyclopropyl-4-(2,2,2-trifluoroethoxy)pyridin-2-yl]-1,2,4-oxadiazole]: the EC50 on human CB1 receptors (setting [2]) is more than 10 µM.
As to `FC(F)(F)COc1cc(-c2nc(C(F)(F)F)no2)ncc1C1CC1` [Example 8, 5-[5-cyclopropyl-4-(2,2,2-trifluoroethoxy)pyridin-2-yl]-3-(trifluoromethyl)-1,2,4-oxadiazole], the concentration for a half-maximal effect (EC50) was 21.3 nM on human CB2 receptors (setting [1]) and more than 10 µM at human CB1 receptors (setting [2]).
For the compound `c1c(-c2noc(C3CC3)n2)ncc(C2CC2)c1OCC1CC1` [Example 9, 5-cyclopropyl-3-[5-cyclopropyl-4-(cyclopropylmethoxy)pyridin-2-yl]-1,2,4-oxadiazole], the values for the EC50 on human CB2 receptors and on human CB1 receptors were 15.8 nM and more than 10 µM, respectively.
With `CCC1(CC)COC(c2cc(OCC3CC3)c(C3CC3)cn2)=N1` [Example 11, 2-[5-cyclopropyl-4-(cyclopropylmethoxy)pyridin-2-yl]-4,4-diethyl-5H-1,3-oxazole], the EC50 at human CB2 receptors (setting [1]) was 0.6 nM; on human CB1 receptors (setting [2]), more than 10 µM.
As for `COCc1nc(-c2cc(OCC3CC3)c(C3CC3)cn2)no1` [Example 12, 3-[5-cyclopropyl-4-(cyclopropylmethoxy)pyridin-2-yl]-5-(methoxymethyl)-1,2,4-oxadiazole], the results for the EC50 on human CB2 receptors (setting [1]) and on human CB1 receptors (setting [2]) were 46.6 nM and more than 10 µM, respectively.
Take `CCc1nc(-c2cc(OCC3CC3)c(C3CC3)cn2)no1` [Example 13, 3-[5-cyclopropyl-4-(cyclopropylmethoxy)pyridin-2-yl]-5-ethyl-1,2,4-oxadiazole]: the results for the EC50 on human CB2 receptors (setting [1]) and at human CB1 receptors (setting [2]) were 31.9 nM and more than 10 µM, respectively.
For `CC(C)c1nc(-c2cc(OCC3CC3)c(C3CC3)cn2)no1` [Example 14, 3-[5-cyclopropyl-4-(cyclopropylmethoxy)pyridin-2-yl]-5-propan-2-yl-1,2,4-oxadiazole], the EC50 is 3.7 nM on human CB2 receptors (setting [1]) and more than 10 µM on human CB1 receptors (setting [2]).
Consider `FC(F)(F)COc1cc(-c2nc(C3CC3)no2)ncc1N1CC(F)(F)C1` [Example 15, 3-cyclopropyl-5-[5-(3,3-difluoroazetidin-1-yl)-4-(2,2,2-trifluoroethoxy)pyridin-2-yl]-1,2,4-oxadiazole], for which the EC50 is 19.8 nM on human CB2 receptors (setting [1]) and more than 10 µM at human CB1 receptors (setting [2]).
As to `Cc1noc(-c2cc(OCC(F)(F)F)c(N3CC(F)(F)C3)cn2)n1` [Example 16, 5-[5-(3,3-difluoroazetidin-1-yl)-4-(2,2,2-trifluoroethoxy)pyridin-2-yl]-3-methyl-1,2,4-oxadiazole], the values for the EC50 on human CB2 receptors (setting [1]) and at human CB1 receptors (setting [2]) were 343 nM and more than 10 µM, respectively.
As to `CC(C)(C)c1noc(-c2cc(OCC(F)(F)F)c(N3CC(F)(F)C3)cn2)n1` [Example 17, 3-tert-butyl-5-[5-(3,3-difluoroazetidin-1-yl)-4-(2,2,2-trifluoroethoxy)pyridin-2-yl]-1,2,4-oxadiazole], at human CB1 receptors (setting [2]), the EC50 was more than 10 µM.
As for `OCc1nc(-c2cc(OCC3CC3)c(C3CC3)cn2)no1` [Example 18, [3-[5-cyclopropyl-4-(cyclopropylmethoxy)pyridin-2-yl]-1,2,4-oxadiazol-5-yl]methanol], the EC50 on human CB2 receptors (setting [1]) is 110 nM; on human CB1 receptors (setting [2]), more than 10 µM.
Consider `FC(F)(F)c1nc(-c2cc(OCC3CC3)c(C3CC3)cn2)no1` [Example 19, 3-[5-cyclopropyl-4-(cyclopropylmethoxy)pyridin-2-yl]-5-(trifluoromethyl)-1,2,4-oxadiazole], for which the figures for the EC50 at human CB2 receptors (setting [1]) and at human CB1 receptors (setting [2]) were 13.7 nM and more than 10 µM, respectively.
Take `CC(C)(C)[C@H]1COC(c2cc(OCC3CC3)c(C3CC3)cn2)=N1` [Example 20, (4S)-4-tert-butyl-2-[5-cyclopropyl-4-(cyclopropylmethoxy)pyridin-2-yl]-4,5-dihydro-1,3-oxazole]: the EC50 at human CB2 receptors (setting [1]) is 3.7 nM; at human CB1 receptors (setting [2]), more than 10 µM.
Taken in the same sequence, the figures for `CCC1COC(c2cc(OCC3CC3)c(C3CC3)cn2)=N1` (stereo not drawn) [Example 21, 2-[5-cyclopropyl-4-(cyclopropylmethoxy)pyridin-2-yl]-4-ethyl-4,5-dihydro-1,3-oxazole] were 70 nM and more than 10 µM.
For the compound `c1c(C2=NC3(CCCCC3)CO2)ncc(C2CC2)c1OCC1CC1` [Example 22, 2-[5-cyclopropyl-4-(cyclopropylmethoxy)pyridin-2-yl]-3-oxa-1-azaspiro[4.5]dec-1-ene], on human CB2 receptors (setting [1]), the EC50 worked out at 4.2 nM.
On to `OC1(c2nc(-c3cc(OCC4CC4)c(C4CC4)cn3)no2)CC1` [Example 23, 1-[3-[5-cyclopropyl-4-(cyclopropylmethoxy)pyridin-2-yl]-1,2,4-oxadiazol-5-yl]cyclopropan-1-ol], for which the results for the EC50 on human CB2 receptors (setting [1]) and on human CB1 receptors (setting [2]) were 35.2 nM and more than 10 µM, respectively.
For the compound `CC1(c2nc(-c3cc(OCC4CC4)c(C4CC4)cn3)no2)CC1` [Example 24, 3-[5-cyclopropyl-4-(cyclopropylmethoxy)pyridin-2-yl]-5-(1-methylcyclopropyl)-1,2,4-oxadiazole], the results for the EC50 on human CB2 receptors (setting [1]) and on human CB1 receptors (setting [2]) were 4.3 nM and 0.581 µM, respectively.
Consider `NC(=O)C1(c2nc(-c3cc(OCC4CC4)c(C4CC4)cn3)no2)CC1` [Example 25, 1-[3-[5-cyclopropyl-4-(cyclopropylmethoxy)pyridin-2-yl]-1,2,4-oxadiazol-5-yl]cyclopropane-1-carboxamide], for which the EC50 at human CB2 receptors (setting [1]) was 135 nM; on human CB1 receptors (setting [2]), more than 10 µM.
As for `CC(C)(O)c1nc(-c2cc(OCC3CC3)c(C3CC3)cn2)no1` [Example 26, 2-[3-[5-cyclopropyl-4-(cyclopropylmethoxy)pyridin-2-yl]-1,2,4-oxadiazol-5-yl]propan-2-ol], the EC50 at human CB1 receptors (setting [2]) is more than 10 µM.
With `CCC1(CC)COC(c2cc(OCC(F)(F)F)c(C3CC3)cn2)=N1` [Example 27, 2-[5-cyclopropyl-4-(2,2,2-trifluoroethoxy)pyridin-2-yl]-4,4-diethyl-5H-1,3-oxazole], the EC50 on human CB2 receptors (setting [1]) is 3.5 nM; on human CB1 receptors (setting [2]) it was more than 10 µM.
Regarding `CC1(c2nc(-c3cc(OCC(F)(F)F)c(C4CC4)cn3)no2)CC1` [Example 34, 3-[5-cyclopropyl-4-(2,2,2-trifluoroethoxy)pyridin-2-yl]-5-(1-methylcyclopropyl)-1,2,4-oxadiazole], on human CB1 receptors (setting [2]), the EC50 was more than 10 µM.
The same measure, in the same setting: for `CC(C)(C)c1nc(-c2cc(OCC(F)(F)F)c(N3CC(F)(F)C3)cn2)no1` [Example 44, 5-tert-butyl-3-[5-(3,3-difluoroazetidin-1-yl)-4-(2,2,2-trifluoroethoxy)pyridin-2-yl]-1,2,4-oxadiazole] the value was more than 10 µM; for `CC(C)(C)c1nc(-c2cc(N3CCC4(COC4)C3)c(C3CC3)cn2)no1` [Example 76, 7-[2-(5-tert-butyl-1,2,4-oxadiazol-3-yl)-5-cyclopropylpyridin-4-yl]-2-oxa-7-azaspiro[3.4]octane], more than 10 µM.
Regarding `CC(C)(C)c1nc(-c2cc(OCC3COCCN3)c(C3CC3)cn2)no1` (stereo not drawn) [Example 102, 3-[[2-(5-tert-butyl-1,2,4-oxadiazol-3-yl)-5-cyclopropylpyridin-4-yl]oxymethyl]morpholine], the EC50 on human CB1 receptors (setting [2]) is more than 10 µM.
Still for that read-out and setting: in the case of `CC(C)(C)c1nc(-c2cc(OCc3ccc(F)cc3)c(C3CC3)c(Cl)n2)no1` [Example 112, 5-tert-butyl-3-(6-chloro-5-cyclopropyl-4-(4-fluorobenzyloxy)pyridin-2-yl)-1,2,4-oxadiazole] it was 0.0732 µM; in that of `CC(C)(C)c1nnc(-c2cc(OCC(F)(F)F)c(C3CC3)cn2)o1` [Example 113, 2-tert-butyl-5-[5-cyclopropyl-4-(2,2,2-trifluoroethoxy)pyridin-2-yl]-1,3,4-oxadiazole], more than 10 µM.

In general, EC50 refers to the concentration needed to bring the measured effect to its halfway point.
